In patent publication US11753374B2, “Compounds for the treatment of acute and chronic kidney disease” (Southern Research Institute, priority 2020, dated 2023):
pEC50: −log10 of the molar value.

Tested on: heme oxygenase-1 (HO-1)
Assay: High throughput screen: HO-1 promoter/enhancer luciferase reporter (pHOGL3/4.5+220) in stable HEK293 cells
Format: cell-based
Details: Homo sapiens; for pEC50: Table 1, evaluation of biaryl aminomaleimides, HO-1 induction; for Emax: Table 1, unit inferred, Emax as % of 5 μM hemin
Procedure: The generation of the pHOGL3/4.5+220 construct is described in Deshane, et al. (2010) “SpI regulates chromatin looping between an intronic enhancer and distal promoter of the human heme oxygenase-1 gene in renal cells” J Biol Chem 285(22): 16476-86. See also FIG. 1.
Briefly, BamHI sites were added to the 4.5-kb PCR product generated by long-range PCR from a bacterial artificial chromosome clone containing portions of chromosome 22 (accession no. Z82244), including the HO-1 gene. This fragment was cloned into the BglII restriction site of the multiple cloning region to make the parental clone (pHOGL3/4.5). The 220-bp intronic enhancer was amplified with SalI sites on either end and cloned into the SalI site of the vector to generate pHOGL3/4.5+220.
In order to generate cells that stably express luciferase expression vectors that lack a mammalian antibiotic selection cassette, HEK293 cells were co-transfected with either pHOGL3/4.5+220 (Deshane et al, 2010) or the Triple Mutant construct (Liby, Hock et al, 2005; Hock et al, 2007) and pcDNA3.1 Zeocin using Lipofectamine 2000. Cells were cultured in Zeocin (400 ug/ml; Invitrogen) for selection. Individual clones were sorted by flow cytometry and plated into a 96-well plate at a density of one cell per well. Clones were maintained and expanded in complete media (DMEM/10% FBS/1× antibiotic-antimycotic) supplemented with 100 ug/ml Zeocin, and incubated at 37° C. in 5% carbon dioxide. Incorporation of the Luciferase expression vectors was validated by assaying for luciferase.
A library of over 150,000 compounds, as well as a library of over 4,000 FDA approved compounds, were used in the HTS assay. […] This led to the identification of approximately 800 compounds that induce HO-1 and have desirable chemical structures. […] The In-Cell Western assay was optimized to screen for endogenous HO-1 in a high throughput platform, and results were validated by Western blot, real-time PCR, and enzyme activity assays. Additional RNA sequencing studies highlighted a role for the transcription factor Nrf2 and other targets in HO-1 induction by several small molecules.

Row | Structure (SMILES) | pEC50 | Emax [%]
1 | O=C1C=C(Nc2cc(F)c(O)c(F)c2)C(=O)N1c1ccc(N2CCCCC2)cc1 [Compound 41] | 4.94 | 70.4
2 | O=C1C=C(Nc2cc(F)c(O)c(F)c2)C(=O)N1c1ccc(OC(F)F)cc1 [Compound 55] | 5.64 | 93.3
3 | O=C1C=C(Nc2cc(F)c(O)c(F)c2)C(=O)N1c1cccc(C(F)(F)F)c1 [Compound 64] | 5.48 | 23.9
4 | O=C1C=C(Nc2cc(F)c(O)c(F)c2)C(=O)N1c1ccc2c(c1)OCO2 [Compound 32] | 4.89 | 38.1
5 | COc1ccc(N2C(=O)C=C(Nc3cc(F)c(O)c(F)c3)C2=O)cc1 [Compound 30] | 5.54 | 111
6 | O=C1C=C(Nc2cc(F)c(O)c(F)c2)C(=O)N1c1cc(F)c(F)c(F)c1 [Compound 28] | 4.77 | 31.3
7 | O=C1C=C(Nc2cc(F)c(O)c(F)c2)C(=O)N1c1cccc2ccccc12 [Compound 45] | 4.44 | 141
8 | CC(C)(C)c1ccc(N2C(=O)C=C(Nc3cc(F)c(O)c(F)c3)C2=O)cc1 [Compound 58] | 5.76 | 53.3
9 | COc1c(F)cc(N2C(=O)C=C(Nc3cc(F)c(O)c(F)c3)C2=O)cc1F [Compound 49] | 5.08 | 69.6
10 | O=C1C=C(Nc2cc(F)c(O)c(F)c2)C(=O)N1c1ccc(-c2ncco2)cc1 [Compound 42] | < 4.30 | 
11 | CC(C)c1ccc(N2C(=O)C=C(Nc3cc(F)c(O)c(F)c3)C2=O)cc1 [Compound 36] | 6.05 | 52.5
12 | Nc1ccc(NC2=CC(=O)N(c3ccccc3)C2=O)cc1 [Compound 25] | < 4.30 | 
13 | O=C1C=C(Nc2cc(F)c(O)c(F)c2)C(=O)N1C1CC1 [Compound 68] | < 4.30 | 
14 | COC(=O)c1ccc(N2C(=O)C=C(Nc3cc(F)c(O)c(F)c3)C2=O)cc1 [Compound 44] | 4.72 | 99.6
15 | O=C(O)c1ccc(NC2=CC(=O)N(c3ccccc3)C2=O)cc1 [Compound 24] | < 4.30 | 
16 | O=C1C=C(N2CCN(c3ccc(O)cc3)CC2)C(=O)N1c1ccccc1 [Compound 22] | < 4.30 | 
17 | O=C1C=C(Nc2cc(F)c(O)c(F)c2)C(=O)N1c1ccc(-c2cscn2)cc1 [Compound 59] | 5.04 | 43.9

Row | Structure (SMILES) | pEC50 | Emax [%]
18 | O=C1C=C(Nc2cc(F)c(O)c(F)c2)C(=O)N1C1CCCCC1 [Compound 67] | < 4.30 | 25.6
19 | O=C1C=C(Nc2cc(F)c(O)c(F)c2)C(=O)N1c1ccc(C(F)(F)F)cc1 [Compound 39] | 5.36 | 94.9
20 | O=C1C=C(Nc2cc(F)c(O)c(F)c2)C(=O)N1c1ccc(OC(F)(F)F)cc1 [Compound 31] | 5.64 | 64
21 | Cc1ccc(N2C(=O)C=C(Nc3cc(F)c(O)c(F)c3)C2=O)c(C)c1 [Compound 38] | 5.64 | 57
22 | COc1ccc(N2C(=O)C=C(Nc3cc(F)c(O)c(F)c3)C2=O)cc1C#N [Compound 56] | 5.08 | 36.1
23 | CN(C)c1ccc(N2C(=O)C=C(Nc3cc(F)c(O)c(F)c3)C2=O)cc1 [Compound 53] | 5.47 | 94.1
24 | COc1cc(N2C(=O)C=C(Nc3cc(F)c(O)c(F)c3)C2=O)ccc1F [Compound 52] | 4.85 | 53.1
25 | O=C1C=C(Nc2cc(F)c(O)c(F)c2)C(=O)N1c1ccccc1C(F)(F)F [Compound 47] | 4.71 | 91.1
26 | NC(=O)c1cccc(N2C(=O)C=C(Nc3cc(F)c(O)c(F)c3)C2=O)c1 [Compound 51] | 4.81 | 62.4
27 | O=C1C=C(Nc2cc(F)c(O)c(F)c2)C(=O)N1CCc1ccccc1 [Compound 46] | 6.37 | 68.5
28 | COc1c(Cl)cccc1N1C(=O)C=C(Nc2cc(F)c(O)c(F)c2)C1=O [Compound 34] | < 4.30 | 28.3
29 | Cc1ccc(N2C(=O)C=C(Nc3cc(F)c(O)c(F)c3)C2=O)cc1C [Compound 37] | 5.81 | 57.2
30 | COc1ccc(N2C(=O)C=C(Nc3cc(F)c(O)c(F)c3)C2=O)cc1F [Compound 57] | 5.25 | 98.7
31 | COC(=O)c1cccc(N2C(=O)C=C(Nc3cc(F)c(O)c(F)c3)C2=O)c1 [Compound 65] | 4.81 | 42.8
32 | O=C1C=C(Nc2cc(F)c(O)c(F)c2)C(=O)N1c1ccc(N2CCOCC2)cc1 [Compound 60] | 4.65 | 66.9
33 | O=C1C=C(Nc2cc(F)c(O)c(F)c2)C(=O)N1c1cc(F)cc(F)c1 [Compound 27] | < 4.30 | 72.6

The next lines start with results.

Row | pEC50 | Structure (SMILES) | Emax [%]
34 | 5.50 | O=C1C=C(Nc2cc(F)c(O)c(F)c2)C(=O)N1c1cccc(F)c1 [Compound 63] | 30
35 | 4.82 | O=C1C=C(Nc2cc(F)c(O)c(F)c2)C(=O)N1c1ccc(O)cc1 [Compound 50] | 75.2
36 | 5.99 | O=C1C=C(Nc2cc(F)c(O)c(F)c2)C(=O)N1Cc1ccccc1 [Compound 43] | 67.5
37 | < 4.30 | O=C1C=C(Nc2ccc(O)c(Cl)c2)C(=O)N1c1ccccc1 [Compound 7] | 
38 | 4.70 | COc1ccccc1N1C(=O)C=C(Nc2cc(F)c(O)c(F)c2)C1=O [Compound 54] | 54.9
39 | 5.53 | O=C1C=C(Nc2cc(F)c(O)cc2F)C(=O)N1c1ccccc1 [Compound 14] | 49.1
40 | < 4.30 | O=C1C=C(Nc2cc(Cl)c(Cl)cc2O)C(=O)N1c1ccccc1 [Compound 16] | 
41 | 5.77 | O=C1C=C(Nc2ccc(O)c(Cl)c2F)C(=O)N1c1ccccc1 [Compound 9] | 33.7
42 | 4.92 | O=C1C=C(Nc2ccc(F)c(F)c2O)C(=O)N1c1ccccc1 [Compound 17] | 54.4
43 | 5.76 | O=C1C=C(Nc2ccc(O)cc2Cl)C(=O)N1c1ccccc1 [Compound 6] | 20.4
44 | 4.86 | O=C1C=C(Nc2cc(F)c(O)c(F)c2)C(=O)N1c1ccccc1F [Compound 48] | 82.9
45 | < 4.30 | O=C1C=C(Nc2cc(O)c(Cl)cc2F)C(=O)N1c1ccccc1 [Compound 19] | 
46 | < 4.30 | O=C1C=C(Nc2ccc(O)c(C(F)(F)F)c2)C(=O)N1c1ccccc1 [Compound 11] | 
47 | < 4.30 | O=C1C=C(Nc2cc(F)cc(F)c2O)C(=O)N1c1ccccc1 [Compound 15] | 
48 | < 4.30 | O=C1C=C(Nc2ccccc2)C(=O)N1c1cc(F)c(O)c(F)c1 [Compound 70] | 
49 | 5.12 | Cc1cc(NC2=CC(=O)N(c3ccccc3)C2=O)cc(C)c1O [Compound 12] | 39.3

Row | pEC50 | Structure (SMILES) | Emax [%]
50 | 5.42 | O=C1C=C(Nc2cc(F)c(O)c(F)c2)C(=O)N1c1ccc(Oc2ccccc2)cc1 [Compound 61] | 33.4
51 | 5.56 | O=C1C=C(Nc2cc(F)c(O)c(F)c2)C(=O)N1c1ccc(-c2ccccc2)cc1 [Compound 62] | 34.6
52 | 5.26 | O=C1C=C(Nc2ccc(O)c(F)c2F)C(=O)N1c1ccccc1 [Compound 8] | 41.7
53 | 4.50 | O=C1C=C(Nc2cc(Cl)c(O)c(Cl)c2)C(=O)N1c1ccccc1 [Compound 5] | 72.8
54 | < 4.30 | N#Cc1cccc(N2C(=O)C=C(Nc3cc(F)c(O)c(F)c3)C2=O)c1 [Compound 66] | 
55 | < 4.30 | O=C1C=C(Nc2cc(O)c(F)cc2F)C(=O)N1c1ccccc1 [Compound 18] | 
56 | 5.38 | O=C1C=C(Nc2cc(F)c(O)c(F)c2)C(=O)N1c1ccc(F)cc1 [Compound 26] | 80.7
57 | 5.73 | O=C1C=C(Nc2ccc(O)c(F)c2)C(=O)N1c1ccccc1 [Compound 3] | 56.4
58 | 5.51 | O=C1C=C(Nc2cc(F)c(O)c(F)c2)C(=O)N1c1ccccc1 [Compound 1, 3-(3,5-difluoro-4-hydroxy-anilino)-1-phenyl-pyrrole-2,5-dione] | 90.6
59 | < 4.30 | O=C1C=C(Nc2cc(O)c(Cl)cc2Cl)C(=O)N1c1ccccc1 [Compound 20] | 
60 | 5.74 | O=C1C=C(Nc2ccc(O)cc2)C(=O)N1c1ccccc1 [Compound 2] | 38.1
61 | < 4.30 | O=C1C=C(Nc2ccc(O)c3ncccc23)C(=O)N1c1ccccc1 [Compound 13] | 
62 | 4.78 | O=C1C=C(Nc2ccc(O)cc2)C(=O)N1c1cc(F)c(O)c(F)c1 [Compound 69] | 105
63 | 5.68 | Cc1ccc(N2C(=O)C=C(Nc3cc(F)c(O)c(F)c3)C2=O)cc1 [Compound 35] | 96.8
64 | < 4.30 | O=C1C=C(Nc2c(F)cc(O)cc2F)C(=O)N1c1ccccc1 [Compound 10] | 
65 | < 4.30 | O=C1C=C(Nc2cc(F)c(F)c(F)c2)C(=O)N1c1ccccc1 [Compound 21] | 
